Where “and” joins values, the source holds several entries; their conditions need not be identical. Equal entries are not always repeated. Toxic doses and inconclusive results are not listed. The calls were made as follows: active = survival T/C of 150% or more; inactive = T/C below 125% in these data.
Tested on: P388 leukemia ip, CD2F1 mice, survival T/C
Assay: NCI In Vivo Anticancer Drug Screen. Data for tumor model P388 Leukemia (intraperitoneal) in CD2F1 (CDF1) mice
Conditions: endpoint: median survival time, higher = longer survival
In short: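 Mice carrying the transplanted tumor received test compound or vehicle. Survival was recorded in each group, and the value is the treated-group measurement divided by that of the vehicle-treated control group.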

[1] = dose: 12.5 mg/kg/injection, schedule: Q01DX009 (ip), vehicle: saline with Tween-80
[2] = dose: 25.0 mg/kg/injection, schedule: Q01DX009 (ip), vehicle: saline with Tween-80
[3] = dose: 50.0 mg/kg/injection, schedule: Q01DX009 (ip), vehicle: saline with Tween-80
[4] = dose: 100.0 mg/kg/injection, schedule: Q04DX003 (ip), vehicle: saline with Tween-80
[5] = dose: 200.0 mg/kg/injection, schedule: Q04DX003 (ip), vehicle: saline with Tween-80
[6] = dose: 100.0 mg/kg/injection, schedule: Q04DX003 (ip), vehicle: saline
[7] = dose: 200.0 mg/kg/injection, schedule: Q04DX003 (ip), vehicle: saline
[8] = dose: 25.0 mg/kg/injection, schedule: Q01DX005 (ip), vehicle: Klucel (hydroxypropylcellulose) (HPC)
[9] = dose: 50.0 mg/kg/injection, schedule: Q01DX005 (ip), vehicle: Klucel (hydroxypropylcellulose) (HPC)
[10] = dose: 100.0 mg/kg/injection, schedule: Q01DX005 (ip), vehicle: Klucel (hydroxypropylcellulose) (HPC)
[11] = dose: 200.0 mg/kg/injection, schedule: Q01DX005 (ip), vehicle: Klucel (hydroxypropylcellulose) (HPC)
[12] = dose: 100.0 mg/kg/injection, schedule: Q04DX003 (ip), vehicle: Klucel (hydroxypropylcellulose) (HPC)
[13] = dose: 200.0 mg/kg/injection, schedule: Q04DX003 (ip), vehicle: Klucel (hydroxypropylcellulose) (HPC)
[14] = dose: 400.0 mg/kg/injection, schedule: Q04DX003 (ip), vehicle: Klucel (hydroxypropylcellulose) (HPC)
[15] = dose: 50.0 mg/kg/injection, schedule: Q04DX003 (ip), vehicle: saline with Tween-80
[16] = dose: 100.0 mg/kg/injection, schedule: Q01DX001 (ip), vehicle: saline with Tween-80
[17] = dose: 200.0 mg/kg/injection, schedule: Q01DX001 (ip), vehicle: saline with Tween-80
[18] = dose: 400.0 mg/kg/injection, schedule: Q01DX001 (ip), vehicle: saline with Tween-80
[19] = dose: 100.0 mg/kg/injection, schedule: Q01DX009 (ip), vehicle: saline with Tween-80
[20] = dose: 200.0 mg/kg/injection, schedule: Q01DX009 (ip), vehicle: saline with Tween-80
[21] = dose: 400.0 mg/kg/injection, schedule: Q01DX009 (ip), vehicle: saline with Tween-80

Measured: T/C

C=CCn1cnc2c(=S)nc[nH]c21
inactive: [1] 104 % of control | [2] 104 % of control | [3] 109 % of control | [4] 109 % of control | [5] 100 % of control

CC(=O)NN
inactive: [3] 104 % of control | dose: 50.0 mg/kg/injection, schedule: Q04DX003 (ip), vehicle: saline 105 % of control | [6] 100 % of control | [7] 100 % of control

Cn1nnc(-c2cccc(F)c2)n1
inactive: [8] 105 % of control | [9] 91 % of control and 96 % of control | [10] 93 % of control | [11] 91 % of control

CC(=C\C1=CC(C)(C)CCC1(C)C)/C=C(C)/C=C/C=[N+](\[O-])C1C(C2COC(C)(C)O2)OC2OC(C)(C)OC21 (configuration not stated)
inactive: dose: 12.5 mg/kg/injection, schedule: Q01DX005 (ip), vehicle: DMSO 103 % of control | dose: 25.0 mg/kg/injection, schedule: Q01DX005 (ip), vehicle: DMSO 119 % of control | dose: 50.0 mg/kg/injection, schedule: Q01DX005 (ip), vehicle: DMSO 100 % of control and 113 % of control | dose: 100.0 mg/kg/injection, schedule: Q01DX005 (ip), vehicle: DMSO 106 % of control | dose: 200.0 mg/kg/injection, schedule: Q01DX005 (ip), vehicle: DMSO 103 % of control

O=C(CC(O)(c1ccccc1)c1ccccc1)Sc1ccccc1
inactive: [12] 110 % of control | [13] 105 % of control | [14] 105 % of control

CC(C)(C)SC(=O)C1(C(OC(=O)c2ccccc2)c2ccccc2)CC1 (configuration not stated)
inactive: [12] 96 % of control | [13] 100 % of control | [14] 89 % of control

CCOP(=O)(OCC)C(C)NC(=O)C(C)NC(=O)c1cn(CC)c2nc(C)ccc2c1=O (configuration not stated)
inactive: dose: 100.0 mg/kg/injection, schedule: Q04DX002 (ip), vehicle: saline 97 % of control | dose: 200.0 mg/kg/injection, schedule: Q04DX002 (ip), vehicle: saline 97 % of control | dose: 400.0 mg/kg/injection, schedule: Q04DX002 (ip), vehicle: saline 95 % of control

O=C(O)C(C1CCCCC1)C1(O)CCCCCC1 (configuration not stated)
inactive: [9] 97 % of control | [10] 103 % of control | [11] 100 % of control

O=Nc1ccc(NO)cc1
inactive: dose: 25.0 mg/kg/injection, schedule: Q04DX003 (ip), vehicle: Klucel (hydroxypropylcellulose) (HPC) 110 % of control | dose: 50.0 mg/kg/injection, schedule: Q04DX003 (ip), vehicle: Klucel (hydroxypropylcellulose) (HPC) 108 % of control | [12] 103 % of control | [13] 110 % of control | [14] 88 % of control

C=CC[P+](C)(c1ccccc1)c1ccccc1
inactive: dose: 0.78 mg/kg/injection, schedule: Q01DX009 (ip), vehicle: saline 94 % of control | dose: 1.56 mg/kg/injection, schedule: Q01DX009 (ip), vehicle: saline 97 % of control | dose: 3.13 mg/kg/injection, schedule: Q01DX009 (ip), vehicle: saline 106 % of control

CC(C)CNC1=CC(=O)c2ccccc2C1=O
inactive: [15] 106 % of control | [4] 108 % of control | [5] 92 % of control

COC(=O)c1cc2[n+](cc1C(=O)OC)CCc1cc3c(cc1-2)OCO3
inactive: dose: 0.63 mg/kg/injection, schedule: Q01DX009 (ip), vehicle: water 99 % of control | dose: 1.25 mg/kg/injection, schedule: Q01DX009 (ip), vehicle: water 97 % of control | dose: 2.5 mg/kg/injection, schedule: Q01DX009 (ip), vehicle: water 97 % of control | dose: 5.0 mg/kg/injection, schedule: Q01DX009 (ip), vehicle: water 106 % of control | dose: 10.0 mg/kg/injection, schedule: Q01DX009 (ip), vehicle: water 99 % of control | dose: 20.0 mg/kg/injection, schedule: Q01DX009 (ip), vehicle: water 92 % of control

CC1(C(N)C(=O)O)CC(Cl)=NO1 (configuration not stated)
inactive: dose: 4.0 mg/kg/injection, schedule: Q01DX009 (ip), vehicle: other 108 % of control | dose: 8.0 mg/kg/injection, schedule: Q01DX009 (ip), vehicle: other 103 % of control | dose: 16.0 mg/kg/injection, schedule: Q01DX009 (ip), vehicle: other 100 % of control | dose: 32.0 mg/kg/injection, schedule: Q01DX009 (ip), vehicle: other 103 % of control | dose: 64.0 mg/kg/injection, schedule: Q01DX009 (ip), vehicle: other 103 % of control | dose: 128.0 mg/kg/injection, schedule: Q01DX009 (ip), vehicle: other 94 % of control

CN(C)C(=S)SSC(C)(C)C
inactive: [9] 100 % of control | [10] 99 % of control | [11] 100 % of control

CCc1c(CO)c(CO)c(-c2ccccc2)n1CCn1c(CC)c(CO)c(CO)c1-c1ccccc1
inactive: [16] 96 % of control | [17] 88 % of control | [18] 96 % of control

CC1=C2C3OC(=O)C(C)C3CCC2(C)C=C(Cl)C1=O (configuration not stated)
inactive: dose: 60.0 mg/kg/injection, schedule: Q01DX005 (ip), vehicle: Klucel (hydroxypropylcellulose) (HPC) 111 % of control | dose: 120.0 mg/kg/injection, schedule: Q01DX005 (ip), vehicle: Klucel (hydroxypropylcellulose) (HPC) 98 % of control | dose: 240.0 mg/kg/injection, schedule: Q01DX005 (ip), vehicle: Klucel (hydroxypropylcellulose) (HPC) 101 % of control

O=C(Oc1cc([N+](=O)[O-])cc([N+](=O)[O-])c1)C(c1ccccc1)c1ccccc1
inactive: [1] 106 % of control | [2] 112 % of control | [3] 118 % of control

Nc1nc(=O)cnn1C1OC(CO)C(O)C1O (configuration not stated)
inactive: [16] 98 % of control | [17] 97 % of control | [18] 103 % of control

CC1CC(C)(C)N=C(CCC2CCCC2=O)O1 (configuration not stated)
inactive: [19] 91 % of control | [4] 95 % of control | [20] 100 % of control | [5] 100 % of control | [21] 104 % of control | dose: 400.0 mg/kg/injection, schedule: Q04DX003 (ip), vehicle: saline with Tween-80 104 % of control

CC(/C=C/c1ccccc1)=N\NC(=O)c1ccccc1
inactive: dose: 6.25 mg/kg/injection, schedule: Q01DX005 (ip), vehicle: Klucel (hydroxypropylcellulose) (HPC) 108 % of control | dose: 12.5 mg/kg/injection, schedule: Q01DX005 (ip), vehicle: Klucel (hydroxypropylcellulose) (HPC) 97 % of control | [8] 100 % of control and 108 % of control and 96 % of control | [10] 112 % of control

CC1(C)N=C(N)N=C(N)N1c1ccc(CCc2ccccc2)cc1
inactive: dose: 37.5 mg/kg/injection, schedule: Q04DX003 (ip), vehicle: saline with Tween-80 87 % of control | dose: 75.0 mg/kg/injection, schedule: Q04DX003 (ip), vehicle: saline with Tween-80 100 % of control | [6] 120 % of control | [7] 100 % of control

O=C1c2cc(Cl)ccc2-c2c(NC(=O)C(Cl)Cl)cc(Cl)cc21
inactive: [1] 95 % of control | dose: 25.0 mg/kg/injection, schedule: Q01DX009 (ip), vehicle: Klucel (hydroxypropylcellulose) (HPC) 100 % of control | [2] 95 % of control | dose: 50.0 mg/kg/injection, schedule: Q01DX009 (ip), vehicle: Klucel (hydroxypropylcellulose) (HPC) 88 % of control | [3] 100 % of control

O=[N+]([O-])c1ccccc1SSc1ccccc1[N+](=O)[O-]
inactive: [19] 95 % of control | [20] 104 % of control | [21] 100 % of control

COC(=O)c1nc(NN)[nH]c(=O)c1C
inactive: dose: 15.0 mg/kg/injection, schedule: Q01DX005 (ip), vehicle: saline with Tween-80 103 % of control | dose: 30.0 mg/kg/injection, schedule: Q01DX005 (ip), vehicle: saline with Tween-80 98 % of control | dose: 60.0 mg/kg/injection, schedule: Q01DX005 (ip), vehicle: saline with Tween-80 99 % of control and 97 % of control

OCC1OC(n2cnc3c(SCc4ccccn4)ncnc32)C(O)C1O (configuration not stated)
inactive: dose: 12.5 mg/kg/injection, schedule: Q04DX003 (ip), vehicle: saline with Tween-80 109 % of control | dose: 25.0 mg/kg/injection, schedule: Q04DX003 (ip), vehicle: saline with Tween-80 96 % of control | [15] 99 % of control | [4] 96 % of control
